Experimental data: US20100137313A1 (ASTRAZENECA AB, priority 2008, published 2010)
In brackets after ≈: the same amount, converted by molar mass.

Tests used:
Spn 548 (gram+) = test: Bacterial susceptibility testing in liquid media (MIC); format: cell-based; details: Streptococcus pneumoniae; lowest concentration reducing growth by 80% or more; 37° C., 24 hrs
Description: (§1) Compounds may be tested for antimicrobial activity by susceptibility testing in liquid media. Compounds may be dissolved in dimethylsulfoxide and tested in 10 doubling dilutions in the susceptibility assays. The organisms used in the assay may be grown overnight on suitable agar media and then suspended in a liquid medium appropriate for the growth of the organism. The suspension can be a 0.5 McFarland and a further 1 in 10 dilution can be made into the same liquid medium to prepare the final organism suspension in 100 μL. Plates can be incubated under appropriate conditions at 37° C. for 24 hrs prior to reading. The Minimum Inhibitory Concentration (MIC) may be determined as the lowest drug concentration able to reduce growth by 80% or more.

Mca 445 (gram−) = test: as above; format: cell-based; details: Moraxella catarrhalis; lowest concentration reducing growth by 80% or more; 37° C., 24 hrs
Description: as §1

Spy 838 (gram+) = test: as above; format: cell-based; details: Streptococcus pyogenes; lowest concentration reducing growth by 80% or more; 37° C., 24 hrs
Description: as §1

[1] = biological target: S. pneumoniae Topoisomerase IV ATPase (ParE) (Streptococcus pneumoniae serotype 4, UniProt Q59961); test: S. pneumoniae Topoisomerase IV ATPase inhibition; format: biochemical; details: values marked * are an average of two or more data points; for inhibition at 13 µM: read-out: % Inh (13 μM) of S. pneumoniae Topoisomerase IV ATPase
Sequence of S. pneumoniae Topoisomerase IV ATPase (ParE) (Q59961 whole entry): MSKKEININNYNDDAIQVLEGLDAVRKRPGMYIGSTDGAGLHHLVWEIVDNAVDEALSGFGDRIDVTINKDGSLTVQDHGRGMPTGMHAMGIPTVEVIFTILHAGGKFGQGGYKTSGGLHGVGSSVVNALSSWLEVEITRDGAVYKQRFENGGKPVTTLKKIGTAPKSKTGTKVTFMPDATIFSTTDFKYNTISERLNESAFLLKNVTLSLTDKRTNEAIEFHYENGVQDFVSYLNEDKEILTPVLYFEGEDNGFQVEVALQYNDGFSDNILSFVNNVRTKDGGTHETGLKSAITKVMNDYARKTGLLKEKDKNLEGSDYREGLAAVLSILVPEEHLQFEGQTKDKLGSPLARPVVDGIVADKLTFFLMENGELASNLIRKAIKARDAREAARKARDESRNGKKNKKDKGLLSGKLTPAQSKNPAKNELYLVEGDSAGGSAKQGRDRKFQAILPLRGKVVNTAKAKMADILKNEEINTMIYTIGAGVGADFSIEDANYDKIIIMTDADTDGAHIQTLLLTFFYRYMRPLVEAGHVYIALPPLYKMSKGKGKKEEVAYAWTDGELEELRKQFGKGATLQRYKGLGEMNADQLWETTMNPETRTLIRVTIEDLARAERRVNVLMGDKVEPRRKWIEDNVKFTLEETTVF
Outline: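 ParE ATPase (1.25 nM) run with 160 μM ATP and 5 μg/ml sheared salmon sperm DNA in Tris pH 8.0, Mg2+, glycerol, DTT, Brij-35. Phosphate released read by malachite green/molybdate absorbance at 650 nm. IC50 from 10 compound concentrations; DMSO (2%) as 0% and EDTA (20 μM) as 100% inhibition.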

## NCCCNc1nc(Nc2ccc(F)c(Cl)c2)ncc1-c1cncnc1 [Ex 211]
Spn 548 (gram+)
  MIC: 25 µM (≈ 9.35 µg/mL)
Mca 445 (gram−)
  MIC: 12.5 µM (≈ 4.67 µg/mL)
Spy 838 (gram+)
  MIC: 25 µM (≈ 9.35 µg/mL)
[1]
  inhibition at 13 µM: 76.6%

## Fc1ccc(Nc2ncc(-c3cncnc3)c(NCCc3ccncc3)n2)cc1Cl [Example 46, N^2-(3-chloro-4-fluorophenyl)-N^4-(2-pyridin-4-ylethyl)-5-pyrimidin-5-ylpyrimidine-2,4-diamine]
Spn 548 (gram+)
  MIC: 3.13 µM (≈ 1.32 µg/mL)
Mca 445 (gram−)
  MIC: 3.13 µM (≈ 1.32 µg/mL)
Spy 838 (gram+)
  MIC: 8.84 µM (≈ 3.73 µg/mL)
[1]
  inhibition at 13 µM: 93.5%

## O=C(O)c1ccc(-c2cnc(Nc3ccc(F)c(Cl)c3)nc2N2CCOCC2)s1 [Example 176, 5-(2-(3-chloro-4-fluorophenylamino)-4-morpholinopyrimidin-5-yl)thiophene-2-carboxylic acid]
Spn 548 (gram+)
  MIC: 6.25 µM (≈ 2.72 µg/mL)
Mca 445 (gram−)
  MIC: 0.78 µM (≈ 0.339 µg/mL)
Spy 838 (gram+)
  MIC: 12.5 µM (≈ 5.44 µg/mL)
[1]
  inhibition at 13 µM: 89%

## Cc1cc(C)cc(Nc2ncc(-c3cc(C(=O)O)c(=O)n(C)c3)c(-n3nc(C(F)(F)F)cc3C)n2)c1 [Example 1166, 5-(2-(3,5-dimethylphenylamino)-4-(5-methyl-3-(trifluoromethyl)-1H-pyrazol-1-yl)pyrimidin-5-yl)-1-methyl-2-oxo-1,2-dihydropyridine-3-carboxylic acid]
[1]
  inhibition at 13 µM: 100%

## COc1cc(Nc2ncc(-c3cnc(OC)c(C(=O)NOCCN4CCOCC4)c3)c(-n3ccc(C(F)(F)F)n3)n2)cc(OC)c1 [Example 1167, 5-(2-(3,5-dimethoxyphenylamino)-4-(3-(trifluoromethyl)-1H-pyrazol-1-yl)pyrimidin-5-yl)-2-methoxy-N-(2-morpholinoethoxy)nicotinamide]
[1]
  inhibition at 13 µM: 100%

## COCCONC(=O)c1cc(-c2cnc(Nc3cc(OC)cc(OC)c3)nc2-n2ccc(C(F)(F)F)n2)cnc1OC [Example 1168, 5-(2-(3,5-dimethoxyphenylamino)-4-(3-(trifluoromethyl)-1H-pyrazol-1-yl)pyrimidin-5-yl)-2-methoxy-N-(2-methoxyethoxy)nicotinamide]
[1]
  inhibition at 13 µM: 100%

## COc1cc(C)cc(Nc2ncc(-c3cnc(OC)c(-c4n[nH]c(=O)o4)c3)c(-n3ccc(C(F)(F)F)n3)n2)c1 [Example 1169, 5-(2-methoxy-5-{2-[(3-methoxy-5-methylphenyl)amino]-4-[3-(trifluoromethyl)-1H-pyrazol-1-yl]pyrimidin-5-yl}pyridin-3-yl)-1,3,4-oxadiazol-2(3H)-one]
[1]
  inhibition at 13 µM: 100%

## COc1cc(C)cc(Nc2ncc(-c3cnc(OC)c(-c4n[nH]c(=O)o4)c3)c(-n3nc(C(F)(F)F)cc3C)n2)c1 [Example 1170, 5-(2-methoxy-5-{2-[(3-methoxy-5-methylphenyl)amino]-4-[5-methyl-3-(trifluoromethyl)-1H-pyrazol-1-yl]pyrimidin-5-yl}pyridin-3-yl)-1,3,4-oxadiazol-2(3H)-one]
[1]
  inhibition at 13 µM: 100%

## CCn1cc(-c2cnc(Nc3cc(C)cc(OC)c3)nc2-n2ccc(C(F)(F)F)n2)cc(C(=O)O)c1=O [Example 1172, 1-ethyl-5-{2-[(3-methoxy-5-methylphenyl)amino]-4-[3-(trifluoromethyl)-1H-pyrazol-1-yl]pyrimidin-5-yl}-2-oxo-1,2-dihydropyridine-3-carboxylic acid]
[1]
  inhibition at 13 µM: 100%

## COc1cc(C)cc(Nc2ncc(-c3cc(C(=O)NS(C)(=O)=O)c(=O)n(C)c3)c(-n3ccc(C(F)(F)F)n3)n2)c1 [Example 1173, 5-{2-[(3-methoxy-5-methylphenyl)amino]-4-[3-(trifluoromethyl)-1H-pyrazol-1-yl]pyrimidin-5-yl}-1-methyl-N-(methylsulfonyl)-2-oxo-1,2-dihydropyridine-3-carboxamide]
[1]
  inhibition at 13 µM: 100%

## COc1cc(C)cc(Nc2ncc(-c3cc(C(=O)NS(C)(=O)=O)c(=O)n(C)c3)c(-n3nc(C(F)(F)F)cc3C)n2)c1 [Example 1174, 5-{2-[(3-methoxy-5-methylphenyl)amino]-4-[5-methyl-3-(trifluoromethyl)-1H-pyrazol-1-yl]pyrimidin-5-yl}-1-methyl-N-(methylsulfonyl)-2-oxo-1,2-dihydropyridine-3-carboxamide]
[1]
  inhibition at 13 µM: 100%

## CCn1cc(-c2cnc(Nc3cc(C)cc(OC)c3)nc2-n2ccc(C(F)(F)F)n2)cc(C(=O)NS(C)(=O)=O)c1=O [Example 1175, 1-ethyl-5-{2-[(3-methoxy-5-methylphenyl)amino]-4-[3-(trifluoromethyl)-1H-pyrazol-1-yl]pyrimidin-5-yl}-N-(methylsulfonyl)-2-oxo-1,2-dihydropyridine-3-carboxamide]
[1]
  inhibition at 13 µM: 99%

## CCn1cc(-c2cnc(Nc3cc(C)cc(OC)c3)nc2-n2nc(C(F)(F)F)cc2C)cc(C(=O)NS(C)(=O)=O)c1=O [Example 1176, 1-ethyl-5-{2-[(3-methoxy-5-methylphenyl)amino]-4-[5-methyl-3-(trifluoromethyl)-1H-pyrazol-1-yl]pyrimidin-5-yl}-N-(methylsulfonyl)-2-oxo-1,2-dihydropyridine-3-carboxamide]
[1]
  inhibition at 13 µM: 100%

## COc1cc(Nc2ncc(-c3cncc(C(=O)O)c3)c(-n3nc(C(F)F)cc3C)n2)cc(OC)c1 [Intermediate 1126, 5-(4-(3-(difluoromethyl)-5-methyl-1H-pyrazol-1-yl)-2-(3,5-dimethoxyphenylamino)pyrimidin-5-yl)nicotinic acid]
[1]
  inhibition at 13 µM: 100%

## (E)-3-{3-[2-(3- Methoxy-5- tetrazol-1-yl- phenylamino)- 4-morpholin-4- yl-pyrimnidin-5- yl]-phenyl}- acrylic acid [Example 406]
[1]
  % Inh (13 μM) of S. pneumoniae Topoisomerase IV ATPase: 99%
